These results are taken from US8153647B2, “Aryl- and heteroaryl-ethyl-acylguanidine derivatives, their preparation and their application in therapeutics” (Sanofi-Aventis, priority 2006, dated 2012).

Each structure is given as a SMILES string. Structures can show the parent of a compound that is named as a salt.

For the first data set, the target named is T1, Recombinant human renin (Homo sapiens, UniProt P00797).
T1 construct: made in house; host or cells: Chinese Hamster Ovary (CHO) cells
T1 sequence (P00797 67-406): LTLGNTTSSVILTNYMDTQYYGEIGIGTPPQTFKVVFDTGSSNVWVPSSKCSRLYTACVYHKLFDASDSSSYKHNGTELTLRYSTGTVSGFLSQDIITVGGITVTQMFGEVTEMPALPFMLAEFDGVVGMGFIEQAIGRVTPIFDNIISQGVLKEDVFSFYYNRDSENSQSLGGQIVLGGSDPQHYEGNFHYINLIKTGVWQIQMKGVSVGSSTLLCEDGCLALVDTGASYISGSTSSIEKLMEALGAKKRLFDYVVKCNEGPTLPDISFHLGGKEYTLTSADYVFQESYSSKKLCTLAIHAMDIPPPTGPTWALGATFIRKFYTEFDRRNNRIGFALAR
Kind of data set: Renin inhibition in a purified system (FRET, synthetic substrate Dabcyl-gaba-IHPFHLVIHT-EDANS). In kind it is biochemical. The following applies: renin 10 nM, substrate 10 μM, 2 h, room temperature, pH 8. As to the method:
The protocol for the determination in a purified system of the in vitro IC50s of the compounds of the invention is described hereafter.
Recombinant human renin (expressed as prorenin in Chinese Hamster Ovary and purified after activation in active renin using standard methods) at 10 nM concentration is incubated with test compounds at various concentrations and the synthetic substrate Dabcyl-gaba-IHPFHLVIHT-EDANS (Bachem) at 10 μM for 2 h at room temperature, in 0.05 M Tris buffer pH 8 containing 0.1 M NaCl, 2.5 mM EDTA and 1.25 mg/ml bovine serum albumin. Increase in fluorescence (due to the Fluorescence Resonance Energy Transfer) is recorded at an excitation wave-length of 330 nm and at an emission wave length of 485 nm in a microplate spectrofluorometer. IC50 values are calculated from the percentage of inhibition of renin activity as a function of test compound concentration.
By IC50 is commonly meant the concentration at which inhibition is half-maximal. As for `COCCCOc1cc(CCC(=O)NC(=N)N)ccc1-c1ccc(CN2CCCCC2)cc1` [Compound 13, N-[amino(imino)methyl]-3-[2-(3-methoxypropoxy)-4′-(piperidin-1-ylmethyl)biphenyl-4-yl]propanamide hydrochloride], the IC50 was 0.079 µM.

For `CCCCNC(=N)NC(=O)CCc1ccc(-c2ccc(CN3CCN(CC(=O)N(C)C)CC3)cc2)c(OCCCOC)c1` [Compound 30], the IC50 came to 0.07 µM.

On to `CCCNC(=N)NC(=O)CC(C)(C)c1ccc(-c2ccc(C(=O)N3CCN(C)CC3)cc2)c(OCCCOC)c1` [Compound 25, N-[imino(propylamino)methyl]-3-{2-(3-methoxypropoxy)-4′-[(4-methylpiperazin-1-yl)carbonyl]biphenyl-4-yl}-3-methylbutanamide hydrochloride], for which the IC50 was 0.228 µM. As to `COCCCOc1cc(CCC(=O)NC(=N)N)ccc1-c1ccc(CN2CCN(C)CC2=O)cc1` [Compound 78], the IC50 is 0.042 µM. Regarding `COCCCOc1cc(CCC(=O)NC(=N)N)ccc1-c1nccs1` [Compound 157], the IC50 stood at 0.126 µM. Still for that read-out and setting: under `COCCCOc1cc(CCC(=O)NC(=N)NCCc2ccccn2)ccc1-c1ccc(CN2CCC(N(C)C)CC2)cc1` [Compound 6] stands 0.1 µM. As to `COCCCOc1cc(CCC(=O)NC(=N)NCCC(C)C)ccc1-c1ccc(CN2CCC(N(C)C)CC2)cc1` [Compound 11], the IC50 amounted to 0.023 µM. For `COCCCOc1cc(CCC(=O)NC(=N)N)ccc1-c1cccc(CN2CCCCC2=O)c1` [Compound 179], the IC50 was determined as 0.019 µM. Still for that read-out and setting: the figure for `CNC(=N)NC(=O)CCc1ccc(-c2ccc(Cl)c(CS(=O)(=O)C(C)(C)C)c2)c(OCCCOC)c1` [Compound 194, 3-{3′-[(tert-butylsulfonyl)methyl]-4′-chloro-2-(3-methoxypropoxy)biphenyl-4-yl}-N-(methylcarbamimidoyl)propanamide hydrochloride] is 0.048 µM.

For the molecule `COCCCOc1cc(CCC(=O)NC(=N)N)ccc1-c1cccnc1` [Compound 21, hydrochloride], the IC50 amounted to 0.098 µM.

For `CCCCNC(=N)NC(=O)CCc1ccc(-c2ccc(CNCC(c3ccccc3)N(C)C)cc2)c(OCCCOC)c1` (stereo not shown) [Compound 48, N-butyl-N′-{3-[4′-[(2-dimethylamino-2-phenyl-ethylamino)-methyl]-2-(3-methoxy-propoxy)-biphenyl-4-yl]-propionyl}-guanidine, trifluoro-acetic acid salt], the IC50 worked out at 0.143 µM. Still for that read-out and setting: under `COCCCOc1cc(C(C)(C)CC(=O)NC(=N)N)ccc1-c1ccc(CN2CCC(N(C)C)CC2)cc1` [Compound 22] stands 0.01 µM. Same read-out and setting: under `COCCCOc1cc(CCC(=O)NC(=N)N)ccc1-c1ccc(CN2CCC(N(C)C)CC2)cc1` [Compound 2, N-[amino(imino)methyl]-3-[4′-{[4-(dimethylamino)piperidin-1-yl]methyl}-2-(3-methoxypropoxy)biphenyl-4-yl]propanamide hydrochloride] stands 0.019 µM. In the case of `COCCCOc1cc(CCC(=O)NC(=N)N)ccc1-c1ccc(CN2CCN(C)C2=O)cc1` [Compound 173], the IC50 turned out to be 0.053 µM.

Tested on in another data set: not given
Test: not given
Settings: not given
For orientation: melting point means the temperature, or range, at which the solid turns liquid. The molecule `COCCCOc1cc(CCC(=O)NC(=N)NCCc2ccccn2)ccc1-c1ccc(CN2CCC(N(C)C)CC2)cc1` (as salt: HCl) [Compound 6] came in with a melting point of 128 °C. Molecule `COCCCOc1cc(C(C)(C)CC(=O)NC(=N)N)ccc1-c1ccc(CN2CCC(N(C)C)CC2)cc1` (as salt: HCl) [Compound 22] gave a melting point of 105.5 °C. Still for that read-out and setting: the figure for `COCCCOc1cc(CCC(=O)NC2=NC(=O)C(C)(C)CN2)ccc1-c1ccc(CN2CCC(N(C)C)CC2)cc1.Cl` is 132 °C. Regarding `CNC(=N)NC(=O)CCc1ccc(-c2cccc(N(C)C(=O)N3CCOCC3)c2)c(OCCCOC)c1.Cl`, the melting point is 54 to 55 °C. The same measure, in the same setting: the figure for `COCCCOc1cc(CCC(=O)NC(=N)N)ccc1-c1ccc(CN2CCN(C)CC2=O)cc1` (as salt: HCl) [Compound 78] is 61.5 °C.
